Assay results from patent US20260159525A1, “TRICYCLIC HETEROCYCLES” (Merck Patent GmbH, priority 2021, published 2026).

Experiments:
Type in all cases: cell-based
YAP-TEAD interaction = experiment: SK-HEP-1 reporter assay (8x TEAD responsive elements driving NanoLuc luciferase); settings: Homo sapiens, SK-HEP1, SK-HEP-1 cells, 24 hour incubation
Outline: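 SK-HEP-1 cells carrying a stably integrated 8× TEAD-element NanoLuc reporter, seeded 24 h before dosing, were treated in duplicate with a 10-point dose series (top 30 μM final, 0.3% DMSO) for 24 h at 37°C, 5% CO2. Luciferase activity read by NanoGlo luminescence; IC50 derived from it.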

NCI-H226 cells = experiment: Viability assay in NCI-H226 (Yap-dependent) cells, CyQUANT; settings: Homo sapiens, NCI-H226 YAP dependent cell line, 96 hour incubation, group symbols
Procedure: (§1) Viability Assay in NCI-H226 (Yap-Dependent) and SW620 Yap KO (Yap Independent) Cells
(§2) The ability of YAP-TEAD inhibitors to inhibit tumor cell growth was evaluated using two different cell lines: NCI-H226, which is a YAP dependent cell line, and SW620 cells, where YAP and TAZ were knocked out using CRISPR to generate a YAP independent cell line.
(§3) For the assay, cells were treated in duplicates with the test compounds in a 10-point dose, 1:3 dilution steps, with the top concentration starting at 30 μM (final concentration in assay). After a 96 hour incubation at 37° C., 95% rH, and 5% CO2, a cell-permeant DNA-binding dye that stains only healthy cells (CyQUANT®, Promega) was added to the cells, allowing the quantification of cell viability.
(§4) Cell Media: The NCI-H226 cells were cultured in the following media: RPMI 1640, +10% FBS, +1× GlutaMAX, +10 mM HEPES, +0.5% Pen/Strep. The SW620-KO cells were cultured in the following media: DMEM/F-12, +10% FBS, +1× GlutaMAX, +10 mM HEPES, +0.5% Pen/Strep.
(§5) Reagents: The reagents used are listed below:
(§6) Cell culture: The cells were examined using an inverted microscope to check for health, cell density, etc. To dissociate adherent cells, the monolayer of cells was washed once with pre-warmed PBS. After removing the PBS, 3 ml pre-warmed Accutase was added to a F75 flask, dispersed evenly and the flask was allowed to sit in incubator for ˜4-5 minutes.
(§7) When a single cell suspension was obtained, 7 ml of prewarmed growth media was added and resuspended with the cells. The cell suspension was transferred to a sterile 15 ml conical centrifuge tube, and spun for 5 min at 300×g, RT. The supernatant was discarded and the pellet was resuspended in 10 ml of pre-warmed growth media.
(§8) The total cell count was determined, and 20 μl of the desired cell number was added to each well of a 384 well plate using a Multidrop Combi. The plates were then incubated for 24 hours at 37° C., 95% rH, and 5% CO2.
(§9) Compound treatment: 24 hours after seeding, the cells were treated with compounds.
(§10) A 1:333 dilution of compounds, diluted in DMSO, was made to get a final concentration of 0.3% DMSO per well. To transfer the compounds to the assay plate, 120 nl was shot from Labcyte low dead volume plates to the cell plates containing 20 μl media/well with the ECHO 555 liquid handling system. After treatment, the cells were fed with 20 μl fresh pre-warmed assay media using a Multidrop combi.
(§11) The assay plates were then incubated for 96 h at 37° C., 95% rH, and 5% CO2.
(§12) 96 h after treatment 30 μl of CyQuant® reagent was added to the assay plates using a Multidrop combi in the dark. The plates were then incubated for 1 hour at 37° C., 95% rH and 5% CO2. Thereafter, the assay plates were removed from the incubator and allowed to equilibrate to RT for 30 min in the dark without lid. Finally, they were measured using an EnVision microplate reader with a FITC bottom read program.

SW620 Yap KO cells = experiment: Viability assay in SW620 Yap KO (Yap independent) cells, CyQUANT; settings: Homo sapiens, SW-620, SW620 YAP and TAZ knocked out (YAP independent), 96 hour incubation, n.d. (x) = not detectable below threshold x
Procedure: as §1, §2, §3, §4, §5, §6, §7, §8, §9, §10, §11, §12

[1] = number, or n.d. (x) = not detectable below threshold x

Structure (SMILES) | IC50 (YAP-TEAD interaction; group symbols) [nM] | IC50 (NCI-H226 cells) [nM] | IC50 (SW620 Yap KO cells) [nM] | IC50 (YAP-TEAD interaction; [1]) [nM]
Cn1cc2c3sc(C(=O)O)cc3n(C[C@H]3C[C@@H](C(F)(F)F)C3)c2n1 [Compound 36, 10-methyl-7-{[(1s,3s)-3-(trifluoromethyl)cyclobutyl]methyl}-3-thia-7,9,10-triazatricyclo[6.3.0.0^2,6]undeca-1(11),2(6),4,8-tetraene-4-carboxylic acid] | 100 to 10000 | 100 to 1000 | > 30000 | 
Cn1cc2c3cc(C(=O)N[C@@H](CCO)c4cncs4)sc3n(-c3ccc(C(F)(F)F)cc3)c2n1 (single isomer, unassigned) [Compound 41] | 100 to 10000 | 100 to 1000 | > 3000 | 
Cn1cc2c3cc(C(=O)N=[S@](C)(=O)CCCO)sc3n(-c3ccc(C(F)(F)F)cc3)c2n1 (single isomer, unassigned) [Compound 62] |  | 100 to 1000 | > 3000 | > 300
C[C@H](CO)NC(=O)c1cc2c3cn(C)nc3n(-c3ccc(OC(F)(F)F)cc3)c2s1 [Compound 50, N-[(2R)-1-hydroxypropan-2-yl]-4-methyl-7-[4-(trifluoromethoxy)phenyl]-9-thia-4,5,7-triazatricyclo[6.3.0.0^2,6]undeca-1(8),2,5,10-tetraene-10-carboxamide] | 100 to 10000 | 1 to 100 | > 30000 | 
Cn1cc2c3cc(C(=O)NC4(CO)CC4)sc3n(-c3ccc(C(F)(F)F)cc3)c2n1 [Compound 91, N-[1-(hydroxymethyl)cyclopropyl]-4-methyl-7-[4-(trifluoromethyl)phenyl]-9-thia-4,5,7-triazatricyclo[6.3.0.0^2,6]undeca-1(8),2,5,10-tetraene-10-carboxamide] |  | 1 to 100 | > 30000 | > 30000
Cn1cc2c3cc(C(=O)N[C@@H](CO)c4ccccn4)sc3n(-c3ccc(C(F)(F)F)cc3)c2n1 [Compound 35, N-[(1R)-2-hydroxy-1-(pyridin-2-yl)ethyl]-4-methyl-7-[4-(trifluoromethyl)phenyl]-9-thia-4,5,7-triazatricyclo[6.3.0.0^2,6]undeca-1(8),2,5,10-tetraene-10-carboxamide] | 10 to 100 | 1 to 100 | > 3200 | 

Second part, the compound after the results:

IC50 (YAP-TEAD interaction; group symbols) [nM] | IC50 (NCI-H226 cells) [nM] | IC50 (SW620 Yap KO cells) [nM] | IC50 (YAP-TEAD interaction; [1]) [nM] | Structure (SMILES)
100 to 10000 | 1 to 100 | > 3000 |  | CNC(=O)c1cc2c3cn(C)nc3n(-c3ccc(OC(F)(F)F)cn3)c2s1 [Compound 124, N,4-dimethyl-7-[5-(trifluoromethoxy)pyridin-2-yl]-9-thia-4,5,7-triazatricyclo[6.3.0.0^2,6]undeca-1(8),2,5,10-tetraene-10-carboxamide]
100 to 10000 | 1 to 100 | > 30000 |  | Cn1cc2c3cc(C(=O)N[C@@H](CO)c4ccccn4)sc3n(-c3ccc(OC(F)F)cn3)c2n1 [Compound 122, 7-[5-(difluoromethoxy)pyridin-2-yl]-N-[(1R)-2-hydroxy-1-(pyridin-2-yl)ethyl]-4-methyl-9-thia-4,5,7-triazatricyclo[6.3.0.0^2,6]undeca-1(8),2,5,10-tetraene-10-carboxamide]
1 to 10 | 100 to 1000 | > 30000 |  | Cn1cc2c3cc(C(=O)NCC(O)CO)sc3n(-c3ccc(C(F)(F)F)cc3)c2n1 (stereo not drawn) [Compound 97, N-(2,3-dihydroxypropyl)-4-methyl-7-[4-(trifluoromethyl)phenyl]-9-thia-4,5,7-triazatricyclo[6.3.0.0^2,6]undeca-1(8),2,5,10-tetraene-10-carboxamide]
 | 1 to 100 | > 30000 | > 300 | C[C@H](CO)NC(=O)c1cc2c3cn(C)nc3n(-c3ccc(OC(F)F)cn3)c2s1 [Compound 123, 7-[5-(difluoromethoxy)pyridin-2-yl]-N-[(2R)-1-hydroxypropan-2-yl]-4-methyl-9-thia-4,5,7-triazatricyclo[6.3.0.0^2,6]undeca-1(8),2,5,10-tetraene-10-carboxamide]
